Measured values taken from patent US20220402950A1, “SUBSTITUTED BENZIMIDAZOLES AS PAD4 INHIBITORS” (BRISTOL-MYERS SQUIBB COMPANY, priority 2018, published 2022).
Read-outs that look alike come from different tables or passages of the source.

Biological target: human PAD4 (hPAD4) (Homo sapiens, UniProt Q9UM07)
Test: RFMS Human PAD4 Functional Assay
Type: biochemical
Conditions: 5 nM hPAD4, 250 μM BAEE
Protocol: RFMS Human PAD4 Functional Assay:
Compounds were solubilized in 100% DMSO to achieve a 10 mM compound concentration. Compound stock solutions were stored at RT. A series of dilutions were prepared in DMSO and mixed 8 times with 20 μL mixing volume. Final top concentration of compound in the assay is 50 μM.
0.13 μL of compound solution was added to 13 μL of 10 nM PAD4 in assay buffer. After 30 min 13 μl of 500 μM of BAEE was added in 25 mM hepes, pH 7.5, 5 mM NaCl, 1 mM DTT, 0.2 mg/ml BSA, 0.01% CHAPS, 50 μM Calcium, 5 μM TPEN was added and the reaction incubated for 90 min at 37° C. The enzymatic reaction was quenched by addition of 15 μl of 6.1N TCA, 100% Final Concentration is 20%, 35 μl of 8.5 mM phenyl glyoxal (final concentration 4 mM) is then added and the reaction is incubated for 30 min at 37° C.
After 30 minutes the plates are spun down to remove all precipitate. The enzyme reaction was quenched with an equal volume of methanol containing internal standard (modified citrulline). Samples were loaded onto the Rapid Fire RF300 system (Agilent) wherein they were first sipped for 1000 ms and then directly loaded to a C18 separations cartridge using a mixture of acetonitrile containing 0.01% formic acid for 3000 ms desalting. The flow rate of the mobile phase was 1.5 ml/min.
The dwell time for each transition was set at 200 ms, and the ESI voltage was used at 5500 with a source temperature of 400° C. Extracted ion peaks for each transition were integrated using the Rapid Fire Integrator software. Peak area of analyte was normalized with internal standard.).

[1] = human PAD4, rapid-fire mass spectrum (RFMS) assay, read-out: hPAD4 RFMS IC50
[2] = hPAD4 RFMS IC50, human PAD4, rapid-fire mass spectrum (RFMS) assay

human PAD4 (hPAD4), sequence (Q9UM07 whole entry): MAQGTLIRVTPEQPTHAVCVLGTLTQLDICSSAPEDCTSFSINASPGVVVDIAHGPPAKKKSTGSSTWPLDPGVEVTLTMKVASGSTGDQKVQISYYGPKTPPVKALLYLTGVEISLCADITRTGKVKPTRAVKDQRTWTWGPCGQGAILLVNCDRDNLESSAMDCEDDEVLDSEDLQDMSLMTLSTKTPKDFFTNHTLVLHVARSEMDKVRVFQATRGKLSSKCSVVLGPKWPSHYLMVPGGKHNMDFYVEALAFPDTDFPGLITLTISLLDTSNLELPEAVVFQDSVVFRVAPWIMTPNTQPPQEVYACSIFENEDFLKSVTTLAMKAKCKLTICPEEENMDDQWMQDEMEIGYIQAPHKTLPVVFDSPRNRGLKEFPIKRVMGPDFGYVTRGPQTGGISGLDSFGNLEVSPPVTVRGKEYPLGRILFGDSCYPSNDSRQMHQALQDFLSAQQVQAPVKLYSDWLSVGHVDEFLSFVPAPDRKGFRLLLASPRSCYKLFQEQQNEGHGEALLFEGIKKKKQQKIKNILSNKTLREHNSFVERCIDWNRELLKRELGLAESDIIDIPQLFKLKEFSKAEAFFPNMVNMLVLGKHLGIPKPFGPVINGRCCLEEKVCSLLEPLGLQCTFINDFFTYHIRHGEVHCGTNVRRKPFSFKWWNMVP

Compound	IC50 [1] [nM]	IC50 [2] [nM]
1-(2-(5-((1R,4R,7R)- 7-amino-2- azabicyclo[2.2.1]heptane- 2-carbonyl)-7- methoxy-1-methyl- 1H-benzo[d]imidazol- 2-yl)-1- (cyclopropylmethyl)- 1H-indol-7-yl)-N- (pyridin-3- yl)piperidine-1- carboxamide [Example 244]	19	–
COc1cc(C(=O)N2C[C@H]3CC[C@@H]2[C@@H]3N)cc2nc(-c3cc4cccc(C5CC(C(=O)N(C)C)C5)c4n3CC3CC3)n(C)c12 (single isomer, unassigned) [Example 47]	–	13
COc1cc(C(=O)N2C[C@H]3CC[C@@H]2[C@@H]3N)cc2nc(-c3cc4cccc(C5CC(C(=O)N(C)C)C5)c4n3CC3CC3)n(C)c12 (single isomer, unassigned) [Example 48]	–	50
COc1cc(C(=O)N2C[C@H]3CC[C@@H]2[C@@H]3N)cc2nc(-c3cc4cccc(C5CC(C(=O)N6CCCC6)C5)c4n3CC3CC3)n(C)c12 (single isomer, unassigned) [Example 49]	–	34
COc1cc(C(=O)N2C[C@H]3CC[C@@H]2[C@@H]3N)cc2nc(-c3cc4cccc(C5CC(C(=O)N6CCCC6)C5)c4n3CC3CC3)n(C)c12 (single isomer, unassigned) [Example 50]	–	81
COc1cc(C(=O)N2C[C@H]3CC[C@@H]2[C@@H]3N)cc2nc(-c3cc4cccc(C5CC(C(=O)N6CC[C@@H](O)C6)C5)c4n3CC3CC3)n(C)c12 (single isomer, unassigned) [Example 51]	–	48
COc1cc(C(=O)N2C[C@H]3CC[C@@H]2[C@@H]3N)cc2nc(-c3cc4cccc(C5CC(C(=O)N6CC[C@@H](O)C6)C5)c4n3CC3CC3)n(C)c12 (single isomer, unassigned) [Example 52]	–	97
COc1cc(C(=O)N2C[C@H]3CC[C@@H]2[C@@H]3N)cc2nc(-c3cc4cccc(C5CC(C(=O)N6CC[C@H](O)C6)C5)c4n3CC3CC3)n(C)c12 (single isomer, unassigned) [Example 53]	–	51
COc1cc(C(=O)N2C[C@H]3CC[C@@H]2[C@@H]3N)cc2nc(-c3cc4cccc(C5CC(C(=O)N6CC[C@H](O)C6)C5)c4n3CC3CC3)n(C)c12 (single isomer, unassigned) [Example 54]	–	92
COc1cc(C(=O)N2C[C@H]3CC[C@@H]2[C@@H]3N)cc2nc(-c3cc4cccc(C5CCCC(C(N)=O)C5)c4n3CC3CC3)n(C)c12 (single isomer, unassigned) [Example 85]	49	–
COc1cc(C(=O)N2C[C@H]3CC[C@@H]2[C@@H]3N)cc2nc(-c3cc4cccc(C5CCCC(C(N)=O)C5)c4n3CC3CC3)n(C)c12 (single isomer, unassigned) [Example 86]	40	–
CNC(=O)C1CC(c2cccc3cc(-c4nc5cc(C(=O)N6C[C@H](N)C[C@@H](F)C6)cc(OC)c5n4C)n(CC4CC4)c23)C1 (single isomer, unassigned) [Example 111]	76	–
CNC(=O)C1CC(c2cccc3cc(-c4nc5cc(C(=O)N6C[C@H](N)C[C@@H](F)C6)cc(OC)c5n4C)n(CC4CC4)c23)C1 (single isomer, unassigned) [Example 112]	145	–
COc1cc(C(=O)N2C[C@H](N)C[C@@H](F)C2)cc2nc(-c3cc4cccc(C5CC(C(N)=O)C5)c4n3CC3CC3)n(C)c12 (single isomer, unassigned) [Example 113]	–	52
COc1cc(C(=O)N2C[C@H](N)C[C@@H](F)C2)cc2nc(-c3cc4cccc(C5CC(C(N)=O)C5)c4n3CC3CC3)n(C)c12 (single isomer, unassigned) [Example 114]	–	81
COc1cc(C(=O)N2C[C@H](N)C[C@@H](F)C2)cc2nc(-c3cc4cccc(C5CC(C(=O)N6CCCC6)C5)c4n3CC3CC3)n(C)c12 (single isomer, unassigned) [Example 115]	–	64
COc1cc(C(=O)N2C[C@H](N)C[C@@H](F)C2)cc2nc(-c3cc4cccc(C5CC(C(=O)N6CCCC6)C5)c4n3CC3CC3)n(C)c12 (single isomer, unassigned) [Example 116]	–	95
COc1cc(C(=O)N2C[C@H](N)C[C@@H](F)C2)cc2nc(-c3cc4cccc(C5CC(C(=O)N(C)C)C5)c4n3CC3CC3)n(C)c12 (single isomer, unassigned) [Example 117]	–	117
COc1cc(C(=O)N2C[C@H](N)C[C@@H](F)C2)cc2nc(-c3cc4cccc(C5CC(C(=O)N(C)C)C5)c4n3CC3CC3)n(C)c12 (single isomer, unassigned) [Example 118]	–	278
[2H]C([2H])([2H])N(C(=O)C1CC(c2cccc3cc(-c4nc5cc(C(=O)N6C[C@H]7CC[C@@H]6[C@@H]7N)cc(OC)c5n4C)n(CC4CC4)c23)C1)C([2H])([2H])[2H] (single isomer, unassigned; isomer 1) [Example 195]	–	16
COc1cc(C(=O)N2C[C@H]3CC[C@@H]2[C@@H]3N)cc2nc(-c3cc4cccc(C5CC(C(=O)N6CC(F)C6)C5)c4n3CC3CC3)n(C)c12 (single isomer, unassigned; isomer 1) [Example 200]	–	21

Next, values leading:

IC50 [1] [nM]	IC50 [2] [nM]	Compound
–	71	COc1cc(C(=O)N2C[C@H]3CC[C@@H]2[C@@H]3N)cc2nc(-c3cc4cccc(C5CC(O)C5)c4n3CC3CC3)n(C)c12 (mixture of isomers) [Example 18, cis- and trans-3-(2-{5-[(1R,4R,7R)-7-amino-2-azabicyclo[2.2.1]heptane-2-carbonyl]-7-methoxy-1-methyl-1H-1,3-benzodiazol-2-yl}-1-(cyclopropylmethyl)-1H-indol-7-yl)cyclobutan-1-ol]
20	–	CNC(=O)C1CC(c2cccc3cc(-c4nc5cc(C(=O)N6C[C@H]7CC[C@@H]6[C@@H]7N)cc(OC)c5n4C)n(CC4CC4)c23)C1 (single isomer, unassigned) [Example 43]
48	–	CNC(=O)C1CC(c2cccc3cc(-c4nc5cc(C(=O)N6C[C@H]7CC[C@@H]6[C@@H]7N)cc(OC)c5n4C)n(CC4CC4)c23)C1 (single isomer, unassigned) [Example 44]
–	25	COc1cc(C(=O)N2C[C@H]3CC[C@@H]2[C@@H]3N)cc2nc(-c3cc4cccc(C5CC(C(N)=O)C5)c4n3CC3CC3)n(C)c12 (single isomer, unassigned) [Example 45]
–	13	COc1cc(C(=O)N2C[C@H]3CC[C@@H]2[C@@H]3N)cc2nc(-c3cc4cccc(C5CC(C(N)=O)C5)c4n3CC3CC3)n(C)c12 (single isomer, unassigned) [Example 46]
–	122	COc1cc(C(=O)N2C[C@H]3CC[C@@H]2[C@@H]3N)cc2nc(-c3cc4cccc(C5CC(C(=O)O)C5)c4n3CC3CC3)n(C)c12 (single isomer, unassigned) [Example 55]
–	170	COc1cc(C(=O)N2C[C@H]3CC[C@@H]2[C@@H]3N)cc2nc(-c3cc4cccc(C5CC(C(=O)O)C5)c4n3CC3CC3)n(C)c12 (single isomer, unassigned) [Example 56]
75	–	COc1cc(C(=O)N2C[C@H]3CC[C@@H]2[C@@H]3N)cc2nc(-c3cc4cccc(C5CC(NC(C)=O)C5)c4n3CC3CC3)n(C)c12 (single isomer, unassigned) [Example 58]
59	–	COc1cc(C(=O)N2C[C@H]3CC[C@@H]2[C@@H]3N)cc2nc(-c3cc4cccc(C5CC(NC(C)=O)C5)c4n3CC3CC3)n(C)c12 (single isomer, unassigned) [Example 59]
